Reference: PMC13108699, “Mass balance and metabolite profiling of ^14C-Zalunfiban in humans following single-dose subcutaneous administration” (Xenobiotica; the fate of foreign compounds in biological …, 2025)

Test: Cumulative excretion of ^14C in urine and faeces (mass balance)
Format: in vivo, human
Description: This was a Phase 1, single-centre, open-label, non-controlled, mass balance and metabolite profiling study of ^14C-radiolabeled zalunfiban in health male volunteers (NCT04284995). The planned participant enrolment size was 8, with 2 additional alternate participants available on the morning of dosing. Following a 28-day screening period, all eligible participants were admitted to the research unit the evening before dosing. After fasting overnight, participants completed a standard breakfast prior to dosing on study day 1. After dosing, subjects fasted for 4 h. Fluids were permitted ad libitum starting 1-hour after dosing. […]
Whole blood samples were analysed using accelerator mass spectrometry (AMS). […] Each sample was counted for at least 10 min or until the 2%2σ terminator was reached. […] The CO2 produced was trapped in a Carbosorb/Permafluor 2:1 v/v (Perkin Elmer, Waltham MA) to determine total carbon content and the ^14C:^12C ratio and then analysed by AMS.
A carbon content correction based upon pre-dose whole blood samples and urine samples was applied to all post dose samples. As the carbon content of homogenised faeces can be variable, all homogenised faeces samples were analysed by C,H,N using a Thermo Scientific FlashSmart elemental analyser (Waltham, MA). Urea standards were used to calibrate and normalise the C,H,N, and the carbon content of each sample was determined. […]

SMILES: NCC(=O)Nc1cncc(-c2nn3c(=O)cc(N4CCNCC4)nc3s2)c1 [Zalunfiban, 2-amino-N-{5-[5-oxo-7-(piperazin-1-yl)-5H-[1,3,4]thia-diazolo[3,2-a]pyrimidin-2-yl]pyridin-3-yl}acetamide]
- Radioactivity recovered in urine and faeces (by 48 h, on average): more than 80%
- Cumulative percentage of recovered ^14C (urine plus faeces) (by 240 h post-dose, range over participants, listed as 14C-zalunfiban): > 90%
